Drawing on ChEMBL document CHEMBL3769347, “Discovery of high affinity inhibitors of Leishmania donovani N-myristoyltransferase” (Medchemcomm, 2015), this text covers CC50 and Ki for five molecules.

Series [1] in a line: Cytotoxicity in BALB/c mouse BMDM cells after 72 hrs by Alamar Blue assay. It counts as cell-based. The settings on record: bone marrow-derived macrophages (BMDM cells), read-out: LD50. On the technique in general: The colour change of resazurin is a common sign of viable cells or microbes.
Series [2] addresses T1, Glycylpeptide N-tetradecanoyltransferase (Plasmodium falciparum (isolate 3D7), UniProt Q8ILW6).
T1 sequence (Q8ILW6 whole entry): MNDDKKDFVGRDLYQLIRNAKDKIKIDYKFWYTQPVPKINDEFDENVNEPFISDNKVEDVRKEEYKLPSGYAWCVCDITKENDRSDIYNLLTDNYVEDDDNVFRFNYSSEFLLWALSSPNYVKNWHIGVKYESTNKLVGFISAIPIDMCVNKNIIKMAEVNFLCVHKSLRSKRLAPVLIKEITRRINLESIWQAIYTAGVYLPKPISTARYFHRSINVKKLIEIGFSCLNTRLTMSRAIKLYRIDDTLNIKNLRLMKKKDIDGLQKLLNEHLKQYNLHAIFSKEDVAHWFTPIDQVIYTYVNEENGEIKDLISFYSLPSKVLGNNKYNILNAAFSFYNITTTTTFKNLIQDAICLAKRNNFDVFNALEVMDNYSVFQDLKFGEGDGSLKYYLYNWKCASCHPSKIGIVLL
The experiment in a line: Binding affinity to Plasmodium falciparum N-myristoyltransferase by fluorescence analysis.

For the molecule `COc1cccc(Cc2noc(-c3cc(Cl)ccc3OC3CCNCC3)n2)c1`, in series [1], the CC50 at 72 h is 18 µM. For the molecule `COc1cccc(COC(=O)c2sccc2OC2CCNCC2)c1`, the Ki in series [2] was more than 100 µM. For the molecule `COc1cccc(Cc2noc(-c3ccc(F)cc3OC3CCNCC3)n2)c1`, the CC50 at 72 h in series [1] was found to be 29.5 µM.

For the molecule `COc1cccc(Cc2noc(-c3cc(OC)ccc3OC3CCNCC3)n2)c1`, the CC50 at 72 h in series [1] turned out to be 27.9 µM. On the same count and under the same terms, as for `Cc1nn(C)c(C)c1Cc1nnc(-c2cc(Cl)ccc2OC2CCNCC2)o1`, the figure is more than 90 µM.

Usually Ki stands for the dissociation constant of the complex between target and ligand, obtained from inhibition or displacement.
